Values after ≈ are worked out from the molar mass of the structure shown.
How the values were obtained:
[1] = test system: HCT-116 human colon carcinoma cells; assay: Cytotoxicity, growth inhibition (MTT); assay type: cell-based; conditions: Homo sapiens, HCT-116, 120 h, read-out: IC50: half inhibitory concentration, HCT-116
Description: The cytotoxic activity of aurachin D (4) and analogues 9–11 and 17–19 was evaluated in growth inhibition experiments on mammalian cell lines (Table 2). After 5 days treatment, half inhibitory concentrations (IC50) were determined for human HCT-116 colon carcinoma and human K562 myelogenous leukemia cells. […]
was further incubated for 1.5 h. The medium was then discarded and 100 µL 2-propanol/10 N HCl (250:1) was added in order to dissolve formazan granules. The absorbance at 570 nm was measured using a microplate reader (EL808, Bio-Tek Instruments Inc.) and cell viability was expressed as a percentage relative to the respective solvent control. […]

[2] = test system: mitochondrial membrane potential in U-2 OS osteosarcoma cells; assay: MMP assay (high-content screening, TMRM); assay type: cell-based, human; conditions: 16 h; for reduction of the MMP: at concentrations as low as 5 µg/mL; for mitochondrial membrane potential (MMP), % of the control value: highest assay concentration (10 µg/mL), TMRM; for effect on MMP in the tested concentration range: 1 to 10 µg/mL
Description: Since aurachins are described as electron-transport inhibitors of the mitochondrial respiratory chain (complex I and III), we analyzed the synthetic analogues in high-content screening experiments with respect to a decrease of the mitochondrial membrane potential (MMP). Human U-2 OS osteosarcoma cells were treated for 16 hours with aurachins 4, 9–11, and 17–19 at concentrations between 1 and 10 µg/mL, and mitochondria were labeled with tetramethylrhodamine methyl ester (TMRM) in order to assess changes in MMP (Figure 2). Most prominent concentration-dependent effects were determined for aurachin D (4) and one of its analogues (17). […] This might be due to differential effects on different cell lines, a different time course of electron-transport inhibition, or a different mode of inducing apoptosis (e.g., via enhanced ROS formation). However, at the highest assay concentration also shorter chain analogues 9–11 reduced the MMP to approximately 60–80% of the control value as exemplarily shown for geranyl analogue 9 (Figure 2B).
Figure 2 (A) Loss of mitochondrial membrane potential in human U-2 OS osteosarcoma cells that were treated with aurachin D (4) and analogue 17. Images were acquired on a BD Pathway855 automated microscope and subsequently processed in AttoVision v1.6.2. The relative MMP was calculated based on TMRM fluorescence intensity in the cytoplasmic segments. The value of the negative control (untreated cells) was set to 100% and the value of FCCP-treated cells (positive control) was set to 0%. Bars represent the mean ±SEM of all cellular segments within a well. (B) Representative HCS images of U-2 OS cells that were treated with aurachin D (4) or the geranyl analogue 9. Cells were labeled with TMRM and imaged in the rhodamine channel at 200× magnification. […]
MMP assay: Human U-2 OS osteosarcoma cells (HTB-96) were obtained from the American Type Culture Collection (ATCC) and were cultured under the conditions recommended by the depositor. Cells from actively growing cultures were harvested and seeded at 8 × 10^3 cells per well in 96-well imaging plates (BD Falcon). After 1 d cells reached approximately 60% confluency and were treated with aurachin analogues at the assigned concentrations for 16 h. In addition, cells were stimulated with 1 µM FCCP [carbonyl cyanide 4-(trifluoromethoxy)phenylhydrazone] as a positive control 1 h prior to the measurement. For labeling, cells were washed twice with assay buffer ([…], 5.4 mM KCl, 2 mM MgCl2, 10 mM glucose, 2 mM CaCl2, 10 mM HEPES; pH 7.35) and 100 µL of a staining solution (50 nM TMRM, […]
5 µg/mL Hoechst33342 in assay buffer) was added. The cells were stained for 30 min at 37 °C and after washing with assay buffer the samples were examined on an automated microscope (BD Pathway855) in 200-fold magnification with appropriate filter sets for rhodamine and Hoechst. For image analysis, a dual mask (Cyto-Nuc-Ring) was applied in AttoVision v1.6.2. Presented rhodamine fluorescence intensity values were generated in the cytoplasmic segment (ring around nuclei) on a single cell basis and averaged over the complete sample (well).
In vitro antiplasmodial assays: The chloroquine-resistant strain FcB1/Colombia of Plasmodium falciparum was maintained in vitro on human erythrocytes in RPMI 1640 medium supplemented by 8% (v/v) heat-inactivated human serum, at 37 °C, under an atmosphere of 3% CO2, 6% O2, and 91% N2. In vitro drug susceptibility assays was measured by [3H]-hypoxanthine incorporation as described. Drugs were prepared in DMSO at a 10 mg/mL concentration. Compounds were serially diluted two-fold with 100 µL culture medium in 96-well plates. Asynchronous parasite cultures (100 µL, 1% parasitaemia and 1% final hematocrite) were then added to each well and incubated for 24 h at 37 °C prior to the addition of 0.5 µCi of [3H]- hypoxanthine (GE Healthcare, France, 1 to 5 Ci·mmol/mL) per well. After a further incubation of 24 h, plates were frozen and thawed. […]

[3] = test system: Trypanosoma brucei gambiense strain Feo bloodstream forms; assay: Antitrypanosomal assay (resazurin); assay type: cell-based; conditions: for IC50: Trypanosoma brucei, GAMBIENSE, 72 h incubation, read-out: IC50 T. brucei gambiense
Description: page 10: independent experiments. Chloroquine diphosphate (Sigma–Aldrich) was used as antimalarial drug control. Antitrypanosomal activities: Bloodstream forms of Trypanosoma brucei gambiense strain Feo were cultured in HMI9 medium supplemented with 10% FCS at 37 °C under an atmosphere of 5% CO2. Antitrypanosomal assays were performed as previously described. In all experiments, log-phage cell cultures were harvested by centrifugation at 3,000g and immediately used. Drug assays were based on the conversion of a redox-sensitive dye (resazurin) to a fluorescent product by viable cells. Drug stock solutions were prepared in pure DMSO. […] After a 72 h incubation, resazurin solution was added in each well at the final concentration of 45 µM. Fluorescence was measured at 530 nm excitation and 590 nm emission wavelengths after a further 4 h incubation. Each inhibitor concentration was tested in triplicate. The percentage of inhibition of parasite growth rate was calculated by comparing the fluorescence of parasites maintained in the presence of drug to that in the absence of drug. DMSO was used as a control. IC50s were determined from the dose–response curves with drug concentrations ranging from 100 µM to 50 nM. Pentamidine was used as antitrypanosomal drug control. MIC determination: Indicator strains were obtained from the German Collection of Microorganisms and Cell Cultures (Deutsche Sammlung für Mikroorganismen und Zellkulturen, DSMZ) or were part of our internal strain collection. All microorganisms were handled under standard conditions recommended by the depositor. Overnight S10

With `CC(C)=CCC/C(C)=C/CC/C(C)=C/Cc1c(C)[nH]c2ccccc2c1=O` [compound 4, aurachin D] the IC50 [1] was 2.23 ± 0.76 µg/mL (≈ 6.13 µM), the “reduction of the MMP” value [2] was “significantly reduced the MMP” and the “mitochondrial membrane potential (MMP), % of the control value” [2] was “approximately 50%”. The IC50 [3] was 0.4 µg/mL (≈ 1.1 µM) and the antitrypanosomal selectivity index ([3]; Vero cytotoxic concentration / concentration active on T. brucei gambiense) was 35.

For `CC(C)=CCC/C(C)=C/Cc1c(C)[nH]c2ccccc2c1=O` [compound 9], the IC50 [1] was 2.52 ± 0.48 µg/mL (≈ 8.53 µM), the “mitochondrial membrane potential (MMP), % of the control value” [2] was 60–80% and the IC50 [3] was 1.5 µg/mL (≈ 5.08 µM).

`CC(C)=CCCC(C)=CCCC(C)=CCc1c(C)[nH]c2ccc3ccccc3c2c1=O` [compound 17] was tested, and the IC50 [1] was over 10 µg/mL, the “effect on MMP in the tested concentration range” value (“effect on MMP” for short) [2] was “strongly diminished the MMP” and the “reduction of the MMP” value [2] was “significantly reduced the MMP”. The IC50 [3] was 0.8 µg/mL (≈ 1.93 µM).

In the case of `COc1ccc2[nH]c(C)c(CC=C(C)CCC=C(C)CCC=C(C)C)c(=O)c2c1` [compound 18], the IC50 [1] is reported as 1.64 ± 0.47 µg/mL (≈ 4.17 µM), the “effect on MMP” value [2] is reported as “essentially inactive” and the IC50 [3] is reported as 1.6 µg/mL (≈ 4.07 µM).

With `CC(C)=CCCC(C)=CCCC(C)=CCc1c(C)[nH]c2cc3c(cc2c1=O)OCO3` [compound 19] the IC50 [1] was over 10 µg/mL, the “effect on MMP” value [2] was “essentially inactive” and the IC50 [3] was over 10 µg/mL.
